In patent US20230248741A1, “Compositions and Methods for Lowering Triglycerides in a Subject with Reduced Kidney Function and Diabetes Mellitus” (Amarin Pharmaceuticals Ireland Limited, priority 2018, published 2023):

What was measured:
[1] = system: patients with diabetes mellitus and eGFR <90 mL/min/1.73 m^2 for ≥3 months; experiment: ANCHOR post-hoc: lipids/lipoproteins, apolipoproteins, oxidation and inflammation markers; format: in vivo, human
Protocol: A multi-center, placebo-controlled, randomized, double-blind, 12-week study is performed to evaluate the efficacy and safety of >96% E-EPA in patients with fasting triglyceride levels ≥200 mg/dl and <500 mg/dl despite statin therapy (the mean of two qualifying entry values needs to be ≥185 mg/dl and at least one of the values needs to be ≥200 mg/dl). The primary objective of the study is to determine the efficacy of >96% E-EPA 2 g daily and 4 g daily, compared to placebo, in lowering fasting TG levels in patients with high risk for cardiovascular disease and with fasting TG levels ≥200 mg/dL and <500 mg/dL, despite treatment to LDL-C goal on statin therapy.
The primary efficacy variable for the double-blind treatment period is percent change in TG from baseline to Week 12 endpoint. The secondary efficacy variables for the double-blind treatment period include the following: • Percent changes in total cholesterol (TC), high-density lipoprotein cholesterol (HDL-C), LDL-C, calculated non-HDL-C, and very low-density lipoprotein cholesterol (VLDL-C) from baseline to Week 12 endpoint; • Percent change in very low-density lipoprotein TG from baseline to Week 12; • Percent changes in apolipoprotein A-I (apo A-I), apolipoprotein B (apo B), and apo A-I/apo B ratio from baseline to Week 12; • Percent changes in lipoprotein(a) from baseline to Week 12; • Percent changes in LDL particle number and size, measured by nuclear magnetic resonance, from baseline to Week 12; • Percent change in remnant-like particle cholesterol from baseline to Week 12; • Percent change in oxidized LDL from baseline to Week 12; • Changes in FPG and HbA1c from baseline to Week 12; • Change in insulin resistance, as assessed by the homeostasis model index insulin resistance, from baseline to Week 12; • Percent change in lipoprotein associated phospholipase A2 (Lp-PLA2) from baseline to Week 12; • Change in intracellular adhesion molecule-1 from baseline to Week 12; • Change in interleukin-2 from baseline to Week 12; • Change in plasminogen activator inhibitor-1 from baseline to Week 12. Note: this parameter will only be collected at sites with proper storage conditions; • Change in hsCRP from baseline to Week 12; and • Change in plasma concentration and red blood cell membrane content of fatty acid from baseline to Week 12 including EPA, DPA, DHA, AA, dihomo-γ-linolenic acid (DGLA), the ratio of EPA/AA, ratio of oleic acid/stearic acid (OA/SA), and the ratio of total omega-3 acids over total omega-6 acids.
(§1) CVD-related (e.g., atherogenic) parameters were analyzed in a post-hoc study of 198 patients from the multi-center, placebo-controlled, randomized double-blind, 12-week study described in Example 1. These 198 patients have reduced kidney reduced function (e.g., eGFR<90 mL/min/1.73 m^2 for ≥3 months) and diabetes mellitus.
Objective. The primary objective of this post-hoc study was to determine if and how 4 g of daily of >96% E-EPA, compared to placebo, affects patients with reduced kidney function, diabetes mellitus, and high triglyceride levels. The secondary objective was to determine if and how 4 g daily >96% E-EPA, compared to placebo, affected CVD-related parameters in patients having a high risk for CVD and fasting TG levels […]200 mg/dL and <500 mg/dL, despite treatment to LDL-C goal on statin therapy. These CVD-parameters include lipid levels, lipoprotein levels, and inflammatory markers, such as TC, LDL-C, HDL-C, VLDL-C, VLDL-TG, RLP-C, non-HDL-C, Apo B, Apo C-III, Lp-PLA2, hsCRP, and ox-LDL, and in plasma and RBC EPA concentration. CVD-parameters were analyzed for median difference in percent change from baseline to week 12 in subjects receiving 4 g/day of E-EPA and those receiving the placebo.
Subjects: 98 patients were randomized to E-EPA and 100 patients were randomized to placebo. In total, atherogenic parameters were analyzed in all 198 patients, 56% of which were male and 97% of which were white. The mean age of the 198 patients was 63 years old. […]

[2] = system: patients with diabetes mellitus and eGFR <90 mL/min/1.73 m^2 for ≥3 months; experiment: ANCHOR post-hoc (diabetes mellitus, eGFR <90): adverse events and renal parameters; format: in vivo, human
Protocol: Safety assessments will include adverse events, clinical laboratory measurements (chemistry, hematology, and urinalysis), 12-lead electrocardiograms (ECGs), vital signs, and physical examinations.
as §1
In this study, 6 patients in the placebo group discontinued (i.e., withdrawal with consent [n=2]; adverse event [n=2]; death [n=1]; other reason [n=1] and 4 patients from the 4 g/day group discontinued (i.e., adverse event [n=3] and other reason [n=1]). The death in the placebo group was due to myocardial infarction and not considered to be assigned to the investigational agent.

[3] = 4 g/day group, before treatment
[4] = 4 g/day, week 12, Hodges-Lehmann

## CC/C=C\C/C=C\C/C=C\C/C=C\C/C=C\CCCC(=O)OCC [E-EPA, ethyl eicosapentaenoate]
[1]; 4 g/day group (n = 34), before treatment
  RLP-C Baseline, median: 14.0 mg/dL
[1]; 4 g/day group (n = 41), before treatment
  Ox-LDL Baseline, median (IQR): 54.2 (15.8) U/L
[1]; [3]
  Apo B Baseline, median (IQR): 92.0 (22.0) mg/dL
  Apo C-III Baseline, median (IQR): 42.0 (20.0) mg/dL
  HDL-C Baseline, median: 36.0 mg/dL
  LDL-C Baseline, median: 82.5 mg/dL
  Lp-PLA2 Baseline, median (IQR): 178.0 (54.0) ng/mL
  Non-HDL-C Baseline, median: 128.5 mg/dL
  TC Baseline, median: 169.5 mg/dL
  TG Baseline, median: 262.5 mg/dL
  VLDL-C Baseline, median: 42.0 mg/dL
  VLDL-TG Baseline, median: 186.0 mg/dL
  hsCRP Baseline, median (IQR): 2.2 (2.9) mg/L
[1]; 4 g/day, 12 weeks, P<0.0001
  reduction of triglycerides compared to placebo: about 19.7%
[1]; 4 g/day, week 12
  Apo B Change From Baseline, %, median (IQR): −3.5 (17.0) %
  Apo B End of Treatment, median (IQR): 88.0 (25.0) mg/dL
  Apo C-III Change From Baseline, %, median (IQR): −12.3 (45.6) %
  Apo C-III End of Treatment, median (IQR): 36.5 (23.0) mg/dL
  HDL-C Change From Baseline, %, median: −3.0%
  HDL-C End of Treatment, median: 37.0 mg/dL
  LDL-C Change From Baseline, %, median: −2.1%
  LDL-C End of Treatment, median: 83.0 mg/dL
  Lp-PLA2 Change From Baseline, %, median (IQR): −14.4 (16.5) %
  Lp-PLA2 End of Treatment, median (IQR): 160.0 (52.0) ng/mL
  Non-HDL-C Change From Baseline, %, median: −6.0%
  Non-HDL-C End of Treatment, median: 120.5 mg/dL
  Ox-LDL Change From Baseline, %, median (IQR): −8.2 (17.8) %
  Ox-LDL End of Treatment, median (IQR): 49.5 (12.8) U/L
  TC Change From Baseline, %, median: −5.2%
  TC End of Treatment, median: 160.5 mg/dL
  TG Change From Baseline, %, median: −19.3%
  TG End of Treatment, median: 209.8 mg/dL
  VLDL-C Change From Baseline, %, median: −12.3%
  VLDL-C End of Treatment, median: 36.5 mg/dL
  VLDL-TG Change From Baseline, %, median: −19.2%
  VLDL-TG End of Treatment, median: 146.0 mg/dL
  hsCRP Change From Baseline, %, median (IQR): −2.4 (81.7) %
  hsCRP End of Treatment, median (IQR): 1.7 (3.0) mg/L
[1]; [4]
  Apo B Median Difference in % Change From Baseline vs. Placebo: −10.1, <0.0001%
  Apo C-III Median Difference in % Change From Baseline vs. Placebo: −19.0, 0.0006%
  HDL-C Median Difference in % Change From Baseline vs. Placebo: −7.0, 0.0009%
  LDL-C Median Difference in % Change From Baseline vs. Placebo: −7.1, 0.0375%
  Lp-PLA2 Median Difference in % Change From Baseline vs. Placebo: −16.6, <0.0001%
  Non-HDL-C Median Difference in % Change From Baseline vs. Placebo: −13.7, <0.0001%
  Ox-LDL Median Difference in % Change From Baseline vs. Placebo: −16.2, <0.0001%
  RLP-C Median Difference in % Change From Baseline vs. Placebo: −35.4, 0.0029%
  TC Median Difference in % Change From Baseline vs. Placebo: −12.5, <0.0001%
  TG Median Difference in % Change From Baseline for Icosapent Ethyl 4 g/day vs. Placebo: −19.7, <0.0001%
  VLDL-C Median Difference in % Change From Baseline vs. Placebo: −19.0, 0.0006%
  VLDL-TG Median Difference in % Change From Baseline vs. Placebo: −22.3, <0.0001%
  hsCRP Median Difference in % Change From Baseline vs. Placebo: −24.4, 0.0120%
[1]; 4 g/day, week 12, n = 34
  RLP-C Change From Baseline, %, median: −28.9%
  RLP-C End of Treatment, median: 9.5 mg/dL
[2]; 4 g/day
  renal function: no negative impact on renal function
[2]; 4 g/day (n = 100)
  Patients With TEAEs: Any TEAE: 49 (49.0) n (%)
  Patients With TEAEs: Arthralgia: 1 (1.0) n (%)
  Patients With TEAEs: Diarrhea: 5 (5.0) n (%)
  Patients With TEAEs: Nasopharyngitis: 1 (1.0) n (%)
  Patients With TEAEs: Nausea: 3 (3.0) n (%)
[2]; 4 g/day group, 4 discontinued in total
  patients discontinued due to adverse event: 3 n
[2]; 4 g/day, before 0.9 mg/dL, no significant change
  serum creatinine after 12 weeks: 0.9 mg/dL
[2]; 4 g/day, before 18 mg/dL, no significant change
  BUN after 12 weeks: 18 mg/dL
[2]; 4 g/day, before 4.5 g/dL, no significant change
  albumin after 12 weeks: 4.5 g/dL
[2]; 4 g/day, before 75.4, no significant change
  eGFR after 12 weeks: 79.1 mL/min/1.73 m^2
